A word on the logP: it is the decadic logarithm of the partition coefficient of the neutral form, usually between octanol and water. Low readings indicate lower lipophilicity, high ones higher lipophilicity.

Take `Cc1[nH]cnc1[N+](=O)[O-]`: the logP is 0.23.

As for `Cc1nc(Br)n(C)c1[N+](=O)[O-]`, the logP turned out to be 0.82.

`Cn1cnc([N+](=O)[O-])c1Br`: the logP was 0.36.

`Cn1cnc([N+](=O)[O-])c1N` gave a lipophilicity (logP) of -1.

The compound `Cn1cc([N+](=O)[O-])nc1Cl` had a log partition coefficient (logP) of 0.19.

Turning to `O=[N+]([O-])c1nc[nH]c1Br`, the logP worked out at 0.85.

Turning to `Cc1nc([N+](=O)[O-])c(Br)[nH]1`, the lipophilicity (logP) came to 1.14.

On to `COc1c([N+](=O)[O-])ncn1C`, for which the lipophilicity (logP) was 0.19.

In the case of `O=[N+]([O-])c1nc[nH]c1Cl`, the logP worked out at 0.78.

The compound `Cn1cnc([N+](=O)[O-])c1` showed a logP of -0.44.

In the case of `Cn1cc([N+](=O)[O-])nc1Br`, the log partition coefficient (logP) was found to be 0.33.

Take `Cc1[nH]c(Br)nc1[N+](=O)[O-]`: the lipophilicity (logP) stood at 0.86.

`Cn1ccnc1[N+](=O)[O-]` gave a lipophilicity (logP) of -0.17.

With `Cn1cncc1[N+](=O)[O-]`, the logP worked out at 0.13.

Regarding `Cn1cnc(Br)c1[N+](=O)[O-]`, the logP worked out at 0.77.

As for `COc1nc[nH]c1[N+](=O)[O-]`, the logP amounted to 0.13.

The compound `Cn1c([N+](=O)[O-])cnc1Cl` returned a logP of 0.62.

For the compound `Cn1cnc(Cl)c1[N+](=O)[O-]`, the log partition coefficient (logP) came out at 0.69.

As to `COc1nc(C)[nH]c1[N+](=O)[O-]`, the lipophilicity (logP) came to 0.21.
